Test results as given in PubChem BioAssay (NCI).
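Following 48 hours of exposure in 96-well plates, responses at five concentrations were used to interpolate endpoints linearly. At the GI50, growth is halved. The concentration for full growth arrest is given as TGI.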

Key:
Test in all cases: NCI-60 cell line screen, 48 h
[1] = test system: MDA-MB-231 breast
[2] = test system: LOX IMVI melanoma
[3] = test system: HOP-92 NSCLC
[4] = test system: SF-539 CNS
[5] = test system: A549 NSCLC
[6] = test system: UACC-62 melanoma
[7] = test system: U251 CNS
[8] = test system: SW-620 colon
[9] = test system: M14 melanoma
[10] = test system: MALME-3M melanoma

Row | Compound | GI50 [1] [µM] | TGI [1] [µM] | GI50 [2] [µM] | TGI [2] [µM] | GI50 [3] [µM] | TGI [3] [µM] | GI50 [4] [µM] | TGI [4] [µM] | GI50 [5] [µM] | TGI [5] [µM] | GI50 [6] [µM] | TGI [6] [µM] | GI50 [7] [µM] | TGI [7] [µM] | GI50 [8] [µM] | TGI [8] [µM] | GI50 [9] [µM] | TGI [9] [µM] | GI50 [10] [µM] | TGI [10] [µM]
1 | COc1ccc(-c2n[nH]nc2-c2cc(OC)c3c(c2OC)OCO3)cc1 | 1.71 | 17.4 | 0.746 | 19 | 0.685 | 22.6 | 1.32 | 5.4 | 0.7 | > 58.8 | 0.553 | 14 | 0.817 | 11 | 0.348 | > 95.6 | 0.433 | 19.5 | 1.34 | > 100
2 | COc1cccc(NC(=O)c2sc3nc4c(cc3c2N)CN(Cc2ccccc2)CC4)c1 | 11.4 | 75.3 | 4.09 | 43.5 | 2.21 | 24.1 | 1.99 | 6.56 | 3.79 | 53.8 | 1.92 | 29.8 | 2.74 | 19.2 | 1.85 | 72.2 | 12.7 | 86.8 | 1.43 | 16.6
3 | O=C(NN1C(=O)CSC12CCCCC2)c1[nH]c2ccc(F)cc2c1-c1ccccc1 | 18.8 | 45.8 | 24.1 | 61.9 | 17.8 | 40.9 | 21.8 | 37.2 | 16.7 | 30.6 | 15.2 | 54.7 | 18.2 | 39.2 | 26.6 | 87.5 | 38.2 | > 100 | 20.2 | 43.5
4 | CCCCCCCCCCCCCCCCCC(=O)OCC(COC1OC(COP(=O)(O)O)C(O)C(O)C1O)OC(=O)CCCCCCCCCCCCCCCCC (stereo not given) | – | 9.24 | – | 17.2 | – | 10.5 | – | 18.1 | – | 16 | – | 16.3 | – | 14.7 | – | 17.9 | – | 17.3 | – | 14.2
5 | Cc1cc2c3ccc(C)[n+](C)c3ccc2n1C | 5.14 | 55.3 | 5.05 | 30.2 | 1.97 | 19.6 | 3.89 | 21.3 | 0.46 | 9.3 | 8.97 | 22.6 | 1.9 | 15.1 | 2.15 | > 100 | 17.2 | > 100 | 3.6 | 12.7
6 | O=C(c1ccccc1)C(CN1CCOCC1)c1ccccc1 (stereo not given) | 1.83 | 5.05 | 1.32 | 3.19 | 1.33 | 2.87 | 2.11 | 4.47 | 3.94 | 14.9 | 1.71 | 4.21 | 1.71 | 4.09 | 0.372 | 1.28 | 1.66 | 3.57 | 1.79 | 4.03
7 | C=C1CC[C@@H]2[C@](C)(COC(C)=O)[C@@H](O)CC[C@@]2(C)[C@@H]1COc1ccc2ccc(=O)oc2c1 | > 100 | > 100 | > 100 | > 100 | > 100 | > 100 | 53.3 | > 100 | > 100 | > 100 | > 100 | > 100 | 61.2 | > 100 | > 100 | > 100 | > 100 | > 100 | > 100 | > 100
